Each block holds one compound with its values, some of them ahead of it.
Tests used:
K562 cells = assay: Apoptosis induction into K562 cells by combined use, flow cytometry with APO 2.7 antibody; assay type: cell-based; settings: K562 cells cultured 10 days with 2 μM Telomestatin, then 72 hours with the antitumor substance
Description: K562 cells (available from ATCC (Rockville, Md.)) were cultured for 10 days in the presence of 2 μM Telomestatin (GM-95 substance). Subsequently, the Telomestatin-treated K562 cells were incubated for 72 hours together with Imanitib, Daunorubicin (DNR), Mitoxantrone (MIT), or Vincristine (VCR). The expression of apoptosis was measured by flow cytometric analysis using an FITC conjugate APO 2.7 monoclonal antibody (which is generated to a mitochondrial membrane protein (7A6 antigen) and is expressed in cells wherein apoptosis takes place). In the figures, the terms “control,” “TMS,” “Imanitib,” “DNR,” “MIT,” and “VCR” represent a control substance, the GM-95 substance (Telomestatin), Imanitib, Daunorubicin, Mitoxantrone, and Vincristine, respectively.

Solubility in solvents = assay type: physicochemical
HT1080 cells = assay: Combined use of GM-95 substance with another antitumor substance, survival rate by MTT method; assay type: cell-based
Description: Tumor cells were cultured under the conditions described below using the GM-95 substance and another antitumor substance in the same manner as in Example 3. After a certain period of time had passed, the survival rate of the tumor cells was measured.
HT1080 cells were used as tumor cells. In the following experiments, the tumor cells were cultured in a medium formed by adding 10% FBS to RPMI1640 (SIGMA, R8758) using a CO2 incubator (temperature: 37° C.; humidity: 100%; CO2 concentration: 5%).
HT1080 cells were cultured under conditions described in the following (A) to (C). After completion of the culture, the survival rate of the tumor cells was measured by the MTT method. • (A): 0.5 μM GM-95 substance and each of the aforementioned antitumor substances with a certain concentration were simultaneously added to the HT1080 cells, and the tumor cells were then cultured for 2 days. After completion of the culture, the survival rate of the tumor cells was measured. • (B): The tumor cells were previously cultured for 7 days together with 0.5 μM or 1 μM GM-95 substance. […] After completion of the culture, the survival rate of the tumor cells was measured. • (C): The tumor cells were previously cultured for 7 or 14 days together with 0.5 μM or 1 μM GM-95 substance. […] After completion of the culture, the survival rate of the tumor cells was measured. […]

MCF-7 cells = assay: as above; assay type: cell-based; settings: 1 μM or 2 μM GM-95 for 7 or 14 days, then 2 days with antitumor substance
Description: Tumor cells were cultured under the conditions described below using the GM-95 substance and another antitumor substance in the same manner as in Example 5. After a certain period of time had passed, the survival rate of the tumor cells was measured.
MCF-7 cells were used as tumor cells. In the following experiments, the tumor cells were cultured in a medium formed by adding 10% FBS to DMEM (SIGMA, D6046) using a CO2 incubator (temperature: 37° C.; humidity: 100%; CO2 concentration: 5%).
MCF-7 cells were cultured under conditions described in the following (D) and (E). After completion of the culture, the survival rate of the tumor cells was measured by the MTT method. • (D): The tumor cells were previously cultured for 7 days together with 1 μM or 2 μM GM-95 substance. Thereafter, each of the aforementioned antitumor substances with a certain concentration was added to the cells in the absence of the GM-95 substance, followed by culture for 2 days. After completion of the culture, the survival rate of the tumor cells was measured. • (E): The tumor cells were previously cultured for 14 days together with 1 μM or 2 μM GM-95 substance. […] After completion of the culture, the survival rate of the tumor cells was measured. […]

[1] = system: several types of cancer cells; assay: Action of the GM-95 substance on several types of cancer cells; assay type: cell-based
Description: The inventors have already reported the details thereof (refer to International Publication WO00/24747, for example). The GM-95 substance is the strongest telomerase inhibitor among telomerase inhibitors including synthetic compounds that have been reported to date. The action of the GM-95 substance on several types of cancer cells was analyzed. […] In addition, the aged cells had lost their tumorigenicity.

Compound: COc1cccc2c1C(=O)c1c(O)c3c(c(O)c1C2=O)C[C@@](O)(C(C)=O)C[C@@H]3O[C@H]1C[C@H](N)[C@H](O)[C@H](C)O1 [Daunorubicin]
- Effect of inducing apoptosis by combined use of Telomestatin with another antitumor substance (K562 cells): act synergistically

- Solubility in acetone (Solubility in solvents; acetone): insoluble
- Solubility in a mixture consisting of chloroform and methanol (1:1) (Solubility in solvents; chloroform and methanol (1:1)): soluble
- Solubility in water (Solubility in solvents; water): insoluble
Compound: Cc1oc2nc1-c1nc(co1)-c1nc(co1)-c1nc(co1)-c1nc(co1)-c1nc(co1)C1=NC(CS1)c1nc-2c(C)o1 (stereo not drawn) [GM-95]
- Antitumor action by combined use of the GM-95 substance with another antitumor substance (survival rate) (HT1080 cells; HT1080, 0.5 μM or 1 μM GM-95, simultaneous or 7 or 14 days pre-treatment, then 2 days with antitumor substance): enhanced
- Number of surviving cells (HT1080 cells; HT1080 cultured for 14 days in the presence of 1 μM GM-95 substance): very small
- Effect of inducing apoptosis by combined use of Telomestatin with another antitumor substance (K562 cells): act synergistically
- Antitumor action by combined use of the GM-95 substance with another antitumor substance (survival rate) (MCF-7 cells): enhanced
- Induction of aging of cells attended with telomere shortening [1]: induces the aging of cells

Compound: Cc1ccc(NC(=O)c2ccc(CN3CCN(C)CC3)cc2)cc1Nc1nccc(-c2cccnc2)n1 [Imanitib]
- Effect of inducing apoptosis by combined use of Telomestatin with another antitumor substance (K562 cells): act synergistically

Compound: O=C1c2c(O)ccc(O)c2C(=O)c2c(NCCNCCO)ccc(NCCNCCO)c21 [Mitoxantrone]
- Effect of inducing apoptosis by combined use of Telomestatin with another antitumor substance (K562 cells): act synergistically

Compound: CC[C@]1(O)C[C@H]2CN(CCc3c([nH]c4ccccc34)[C@@](C(=O)OC)(c3cc4c(cc3OC)N(C=O)[C@H]3[C@@](O)(C(=O)OC)[C@H](OC(C)=O)[C@]5(CC)C=CCN6CC[C@]43[C@@H]65)C2)C1 [Vincristine]
- Effect of inducing apoptosis by combined use of Telomestatin with another antitumor substance (K562 cells): act synergistically
